Broadly, the IC50 is the concentration needed to halve the response being measured. Low readings indicate greater potency in that assay, high ones weaker potency in that assay.

The values below come from ChEMBL document CHEMBL2413073, “Efficient construction of novel D-ring modified steroidal dienamides and their cytotoxic activities” (Eur J Med Chem, 2013).

One test relates to PC-3. Put plainly: Cytotoxicity against human PC3 cells after 72 hrs by MTT assay. The format is functional, cell-based. Particulars: PC-3, 72 h. (Formazan colour is commonly taken as a measure of viable cells.)
Test [1] can be described thus: Cytotoxicity against human EC109 cells after 72 hrs by MTT assay. The format is functional, cell-based. As to conditions: ECa-109, 72 h.
For a further test, the system named is MGC-803. Put plainly: Cytotoxicity against human MGC803 cells after 72 hrs by MTT assay. In kind it is functional, cell-based. Particulars: MGC-803, 72 h.
Another test deals with MCF7. Put plainly: cells. Particulars: Homo sapiens, MCF7, 72 h.
The subject of the next test is SMMC-7721. Put plainly: Cytotoxicity against human SMMC7721 cells after 72 hrs by MTT assay. As to conditions: SMMC-7721, 72 h. The format is functional, cell-based.

Description for MCF7: Cytotoxicity against human MCF7 cells after 72 hrs by MTT assay

For `COc1cc(/C=C2\C[C@H]3[C@@H]4CC=C5C[C@@H](OC(C)=O)CC[C@]5(C)[C@H]4CC[C@]3(C)\C2=C(\C#N)C(N)=O)cc(OC)c1OC`, the IC50 in the test on PC-3 stood at 11.7 µM; in test [1] it was 5.28 µM; in the test on MGC-803, 6340 nM; in the test on MCF7, 5.23 µM; with SMMC-7721, 2.82 µM.
On to `CC(=O)O[C@H]1CC[C@@]2(C)C(=CC[C@@H]3[C@@H]2CC[C@]2(C)C(=C(/C#N)C(N)=O)/C(=C/c4ccc(F)c(F)c4)C[C@@H]32)C1`, for which the half-maximal inhibitory concentration (IC50) amounted to 8.48 µM in the test with PC-3; 3.05 µM in test [1]; 1560 nM with MGC-803; 4.77 µM in the test with MCF7; 5.66 µM in the test with SMMC-7721.
Regarding `C[C@]12CC[C@H](O)CC1=CC[C@@H]1[C@@H]2CC[C@]2(C)C(=C(/C#N)C(N)=O)/C(=C/c3ccc(Cl)c(Cl)c3)C[C@@H]12`, the IC50 came to 8.84 µM in the test with PC-3; 8.61 µM in test [1]; 5110 nM in the test on MGC-803; 2.41 µM in the test on MCF7; 3.34 µM with SMMC-7721.
In the case of `COc1cc(/C=C2\C[C@H]3[C@@H]4CC=C5C[C@@H](O)CC[C@]5(C)[C@H]4CC[C@]3(C)\C2=C(\C#N)C(N)=O)cc(OC)c1OC`, the IC50 with PC-3 worked out at 12.2 µM; in test [1], 8.72 µM; with MGC-803 it was 1830 nM; in the test on MCF7, 6.54 µM; in the test on SMMC-7721, 7.94 µM.
`CC(=O)O[C@H]1CC[C@@]2(C)C(=CC[C@@H]3[C@@H]2CC[C@]2(C)C(=C(/C#N)C(N)=O)/C(=C/c4ccc(C(C)C)cc4)C[C@@H]32)C1`: the IC50 with PC-3 is 13.5 µM; in test [1], 10 µM; with MGC-803, 1090 nM; in the test with MCF7 it was 15.3 µM; in the test on SMMC-7721, 9.3 µM.
Consider `CC(=O)O[C@H]1CC[C@@]2(C)C(=CC[C@@H]3[C@@H]2CC[C@]2(C)C(=C(/C#N)C(N)=O)/C(=C/c4ccccc4Cl)C[C@@H]32)C1`, for which the half-inhibitory concentration (IC50) in the test with PC-3 came out at 24.3 µM; in test [1], 11.9 µM; in the test on MGC-803, 580 nM; with MCF7 it was 6.27 µM; with SMMC-7721, 18.4 µM.
Take `CC(=O)O[C@H]1CC[C@@]2(C)C(=CC[C@@H]3[C@@H]2CC[C@]2(C)C(=C(/C#N)C(N)=O)/C(=C/c4cccc(Cl)c4)C[C@@H]32)C1`: the IC50 in the test on PC-3 was determined as 11.3 µM; in test [1], 8.97 µM; with MGC-803, 110 nM; in the test with MCF7 it was 8.01 µM; in the test on SMMC-7721, 7.12 µM.
On to `CC(=O)O[C@H]1CC[C@@]2(C)C(=CC[C@@H]3[C@@H]2CC[C@]2(C)C(=C(/C#N)C(N)=O)/C(=C/c4ccccc4)C[C@@H]32)C1`, for which the IC50 in the test with PC-3 was 12.8 µM; in test [1], 11.7 µM; in the test on MGC-803, 3100 nM; in the test on MCF7, 7.47 µM; with SMMC-7721, 5.03 µM.
`O=c1[nH]cc(F)c(=O)[nH]1` [FLUOROURACIL]: the figures for the IC50 (with PC-3; in test [1]; in the test with SMMC-7721) were 24.8 µM, 10.6 µM and 9.78 µM, respectively.
Consider `CC(=O)O[C@H]1CC[C@@]2(C)C(=CC[C@@H]3[C@@H]2CC[C@]2(C)C(=C(/C#N)C(N)=O)/C(=C/c4ccc(Br)cc4)C[C@@H]32)C1`, for which the IC50 in the test on PC-3 was determined as 26.8 µM; in test [1], 5.3 µM; in the test on MGC-803, 2710 nM; with MCF7 it was 2.95 µM; with SMMC-7721 it was 16.5 µM.
In the same order, the values of `COc1cccc(/C=C2\C[C@H]3[C@@H]4CC=C5C[C@@H](O)CC[C@]5(C)[C@H]4CC[C@]3(C)\C2=C(\C#N)C(N)=O)c1` are 14 µM, 9.27 µM, 3960 nM, 5.57 µM and 6.09 µM.
In the case of `CC(=O)O[C@H]1CC[C@@]2(C)C(=CC[C@@H]3[C@@H]2CC[C@]2(C)C(=C(/C#N)C(N)=O)/C(=C/c4ccccc4C#N)C[C@@H]32)C1`, in the test on MCF7, 22.4 µM corresponded to half-maximal inhibition (IC50).
